Assay results taken from ChEMBL document CHEMBL6114980, “Single or double lipid-modified ultra-short antimicrobial peptides for treating infections caused by resistant bacteria” (Eur J Med Chem, 2025).
Values after ≈ are worked out from the molar mass of the structure shown. Active and inactive are the calls of the source. The calls are words filed in the database; no cut-off is given here. Peptide text beside a SMILES is read from it. * marks the point of attachment. Lauroyl = CCCCCCCCCCCC(=O)*; Octanoyl = CCCCCCCC(=O)*

Assays:
[1] = Potency index, ratio of polymyxin B to test compound for acute toxicity in BALB/c mouse assessed lethal dose administered as ip dose measured for 7 days; assay type: organism-based; settings: in vivo, 168 h, time 7 day
[2] = system: Staphylococcus aureus; experiment: Synergistic antibacterial activity against Staphylococcus aureus 113 measured after 18 hrs in presence of cephalothin by absorbance based analysis; assay type: functional, organism-based
[3] = system: Staphylococcus aureus; experiment: Synergistic antibacterial activity against Staphylococcus aureus 25923 measured after 18 hrs in presence of cephalothin by absorbance based analysis; assay type: functional, organism-based
[4] = system: Klebsiella pneumoniae; experiment: Antibacterial activity against Klebsiella pneumoniae ATCC 700603 infected in male BALB/c mouse lung infection model assessed as expansion of lung alveoli at 5 mg/kg, ip measured after 6 to 36 hrs; assay type: functional, organism-based; settings: time 6-36 hrs
[5] = system: Lipopolysaccharide (LPS); experiment: Binding affinity to LPS (unknown origin) assessed as reduction in bacterial mortality at 2 times MIC preincubated with LPS for 1 hr followed by bacteria addition for 24 hrs by spectrophotometric analysis
[6] = system: Escherichia coli; experiment: Antibacterial activity against Escherichia coli assessed as reduction in survival bacterial growth in presence of KCl measured after 18 to 24 hrs (reference value: 8 microM); assay type: functional; settings: time 18-24 hrs
[7] = system: Escherichia coli; experiment: Antibacterial activity against Escherichia coli assessed as reduction in survival bacterial growth in presence of ZnCl2 measured after 18 to 24 hrs (reference value: 8 microM); assay type: functional; settings: time 18-24 hrs
[8] = system: Staphylococcus aureus; experiment: Antibacterial activity against Staphylococcus aureus 25923 at sub-MIC concentration measured after 15 passages; assay type: functional, organism-based
[9] = system: Staphylococcus aureus; experiment: Induction of morphological changes in Staphylococcus aureus assessed as cell aggregation at 2 times MIC measured after 30 mins by SEM analysis; assay type: functional, organism-based
[10] = system: Enterococcus faecalis; experiment: Antibacterial activity against Enterococcus faecalis ATCC 29212 assessed as reduction in bacterial growth incubated for 18 to 24 hrs by broth microdilution method; assay type: functional; settings: time 18-24 hrs
[11] = system: Staphylococcus aureus; experiment: Antibacterial activity against methicillin resistant Staphylococcus aureus infected in male BALB/c mouse model of skin wound infection assessed as reduction in wound area at 2 mg/kg, ip measured after 6 to 36 hrs postinfection; assay type: functional, organism-based; settings: time 6-36 hrs
[12] = system: Staphylococcus aureus; experiment: Synergistic antibacterial activity against Staphylococcus aureus 113 measured after 18 hrs in presence of polymyxin B by absorbance based analysis; assay type: functional, organism-based
[13] = system: Staphylococcus epidermidis; experiment: Antibacterial activity against Staphylococcus epidermidis ATCC 12228 assessed as reduction in bacterial growth incubated for 18 to 24 hrs by broth microdilution method; assay type: functional; settings: time 18-24 hrs
[14] = Stability in mouse serum assessed as half life measured after 1 hr by HPLC analysis; assay type: ADME, cell-free
[15] = Acute toxicity in male BALB/c mouse assessed effect on edema in kidney at 100 to 130 mg/kg, ip measured after 7 days by H and E staining based analysis; assay type: organism-based; settings: in vivo, 168 h, dose 100-130 mg/kg, time 7 day
[16] = system: Staphylococcus aureus; experiment: Additive antibacterial activity against methicillin-resistant Staphylococcus aureus assessed as fractional inhibitory in presence of cephalothin by checker board assay; assay type: functional
[17] = system: Klebsiella pneumoniae; experiment: Antibacterial activity against Klebsiella pneumoniae ATCC 700603 infected in male BALB/c mouse lung infection model assessed as reduction in number of inflammatory cells at 5 mg/kg, ip measured after 6 to 36 hrs; assay type: functional, organism-based; settings: time 6-36 hrs
[18] = system: Bacillus subtilis; experiment: Antibacterial activity against Bacillus subtilis ATCC 23857 assessed as reduction in bacterial growth incubated for 18 to 24 hrs by broth microdilution method; assay type: functional; settings: time 18-24 hrs
[19] = system: Escherichia coli; experiment: Antibacterial activity against Escherichia coli assessed as reduction in survival bacterial growth in presence of <=2 ug/ml chymotrypsin measured after1 hr by absorbance based analysis; assay type: functional, organism-based; settings: time 1.0 hrs
[20] = system: Klebsiella pneumoniae; experiment: Induction of morphological changes in Klebsiella pneumoniae assessed as cell contraction at 2 times MIC measured after 30 mins by SEM analysis; assay type: functional, organism-based
[21] = system: Staphylococcus aureus; experiment: Antibacterial activity against methicillin-resistant Staphylococcus aureus 75 assessed as reduction in bacterial growth incubated for 18 to 24 hrs by broth microdilution method; assay type: functional; settings: time 18-24 hrs
[22] = system: Staphylococcus aureus; experiment: Antibacterial activity against methicillin resistant Staphylococcus aureus infected in male BALB/c mouse model of skin wound infection assessed as healthy development of sebaceous glands at 2 mg/kg, ip measured after 10 days post infection; assay type: functional, organism-based; settings: time 10.0 day
[23] = system: Escherichia coli; experiment: Induction of cell membrane disruption in Escherichia coli assessed as PI uptake at 4 times MIC measured after 120 mins by PI staining based flow cytometry analysis (Rvb =<10 %); assay type: functional; settings: 2 h
[24] = system: Klebsiella pneumoniae; experiment: Induction of morphological changes in Klebsiella pneumoniae assessed as cell aggregation at 2 times MIC measured after 120 mins by SEM analysis; assay type: functional, organism-based
[25] = Acute toxicity in male BALB/c mouse assessed effect on edema in spleen at 100 to 130 mg/kg, ip measured after 7 days by H and E staining based analysis; assay type: organism-based; settings: in vivo, 168 h, dose 100-130 mg/kg, time 7 day
[26] = system: Staphylococcus aureus; experiment: Antibacterial activity against Staphylococcus aureus assessed as reduction in survival bacterial growth by measuring fold change in presence of FeCl3 measured after 18 to 24 hrs; assay type: functional; settings: time 18-24 hrs
[27] = Acute toxicity in male BALB/c mouse assessed mouse survival at 100 to 130 mg/kg, ip measured within 3 hrs; assay type: organism-based; settings: in vivo, dose 100-130 mg/kg
[28] = system: Cell membrane; experiment: Induction of outer membrane permeabilization in Escherichia coli assessed as increase in fluorescence intensity at 2 to 4 times MIC measured for 10 mins by fluorescence based NPN uptake assay
[29] = system: Staphylococcus aureus; experiment: Synergistic antibacterial activity against methicillin-resistant Staphylococcus aureus assessed as fractional inhibitory in presence of polymyxin B by checker board assay; assay type: functional
[30] = system: Cell membrane; experiment: Induction of cytoplasmic membrane depolarization in Escherichia coli assessed as increase in fluorescence intensity at 4 times MIC measured for 10 mins by DiSC3-5 dye based fluorescence assay
[31] = system: Staphylococcus aureus; experiment: Synergistic antibacterial activity against Staphylococcus aureus 25923 measured after 18 hrs in presence of polymyxin B by absorbance based analysis; assay type: functional, organism-based
[32] = system: Staphylococcus aureus; experiment: Synergistic antibacterial activity against Staphylococcus aureus 113 measured after 18 hrs in presence of streptomycin by absorbance based analysis; assay type: functional, organism-based
[33] = system: Klebsiella pneumoniae; experiment: Induction of morphological changes in Klebsiella pneumoniae assessed as cell adhesion at 2 times MIC measured after 30 mins by SEM analysis; assay type: functional, organism-based
[34] = system: Escherichia coli; experiment: Induction of cell membrane disruption in Escherichia coli assessed as PI uptake at 2 times MIC measured after 120 mins by PI staining based flow cytometry analysis (Rvb =<10 %); assay type: functional; settings: 2 h
[35] = system: Klebsiella pneumoniae; experiment: Induction of morphological changes in Klebsiella pneumoniae assessed as cell contraction at 2 times MIC measured after 120 mins by SEM analysis; assay type: functional, organism-based
[36] = system: Staphylococcus aureus; experiment: Synergistic antibacterial activity against methicillin-resistant Staphylococcus aureus measured after 18 hrs in presence of polymyxin B by absorbance based analysis; assay type: functional, organism-based
[37] = system: Staphylococcus aureus; experiment: Antibacterial activity against Staphylococcus aureus assessed as reduction in survival bacterial growth in presence of FeCl3 measured after 18 to 24 hrs (reference value: 4 microM); assay type: functional; settings: time 18-24 hrs
[38] = Acute toxicity in male BALB/c mouse assessed inflammatory cell infiltration in lung at 100 to 130 mg/kg, ip measured after 7 days by H and E staining based analysis; assay type: organism-based; settings: in vivo, 168 h, dose 100-130 mg/kg, time 7 day
[39] = system: Cell membrane; experiment: Induction of cytoplasmic membrane depolarization in Staphylococcus aureus assessed as increase in fluorescence intensity at 0.5 to 4 times MIC measured for 1 mins by DiSC3-5 dye based fluorescence assay

Row | Compound | Ratio [1] | Activity [2] | Activity [3] | Activity [4] | Activity [5] | MIC [6] | MIC [7] | Activity [8] | Activity [9] | MIC [10] | Activity [11] | Activity [12] | MIC [13] | half-life [14] | fractional inhibitory concentration index (FICI) [16] | Activity [17] | MIC [18] | Activity [19] | Activity [20] | MIC [21] | other results
1 | CCCCCCCCCCCC(=O)N[C@@H](CCCCN)C(=O)N[C@@H](CCCCN)C(=O)N[C@@H](Cc1c[nH]c2ccccc12)C(=O)N[C@@H](Cc1c[nH]c2ccccc12)C(N)=O (Lauroyl-KKWW-NH2) | 4.84 | Active | Active | Active | Active | 4 µM | 8 µM | inactive | Active | 8 µM (≈ 6.62 µg/mL) | Active | Active | 4 µM (≈ 3.31 µg/mL) | 4.25 h | 0.75 | Active | 2 µM (≈ 1.66 µg/mL) | Active | Active | 4 µM (≈ 3.31 µg/mL) | Activity [15]: Non-toxic; Activity [22]: Active; Activity [23]: 100%; Activity [24]: Active; Compound Showed More Pronounced Effect Compared To 30 Mins Incubation Time; Activity [25]: Non-toxic; fold change (FC) [26]: 2; Activity [27]: Toxic; Activity [28]: Active; fractional inhibitory concentration index (FICI) [29]: 0.375; Activity [30]: Active; Compound Showed Pronounced Effect Than Quality Control Polymyxin B; Activity [31]: Active; Activity [32]: Active; Activity [33]: Active; Activity [34]: >50%; Activity [35]: Active; Compound Showed More Pronounced Effect Compared To 30 Mins Incubation Time; Activity [36]: Active; MIC [37]: 2 µM
2 | CCCCCCCC(=O)NCCCC[C@H](NC(=O)CCCCCCC)C(=O)N[C@@H](CCCCN)C(=O)N[C@@H](CCCCN)C(=O)N[C@@H](Cc1c[nH]c2ccccc12)C(=O)N[C@@H](Cc1c[nH]c2ccccc12)C(N)=O (Octanoyl-K(Octanoyl)KKWW-NH2) | 4.78 | Active | Active | Active | Active | 8 µM | 4 µM | inactive | Active | 16 µM (≈ 16.4 µg/mL) | Active | Active | 8 µM (≈ 8.21 µg/mL) | 6.3 h | 0.562 | Active | 8 µM (≈ 8.21 µg/mL) | Active | Active | 8 µM (≈ 8.21 µg/mL) | Activity [38]: Non-toxic; Activity [39]: Active; Activity [22]: Active; Activity [23]: 100%; Activity [24]: Active; Compound Showed More Pronounced Effect Compared To 30 Mins Incubation Time; fold change (FC) [26]: 2; Activity [27]: Toxic; Activity [28]: Active; fractional inhibitory concentration index (FICI) [29]: 0.375; Activity [30]: Active; Compound Showed Pronounced Effect Than Quality Control Polymyxin B; Activity [31]: Active; Activity [32]: Active; Activity [33]: Active; Activity [34]: >50%; Activity [35]: Active; Compound Showed More Pronounced Effect Compared To 30 Mins Incubation Time; Activity [36]: Active
